Test results published in patent US20100120884A1, “USE OF DITHIINE-TETRACARBOXIMIDES FOR CONTROLLING PHYTOPATHOGENIC FUNGI” (priority 2008, published 2010).

How the values were obtained:
[1] = physchem; assay type: physicochemical; settings: pH 2.7
Protocol: The determination of the logP values detailed in the tables and preparation examples hereinabove is carried out in accordance with EEC Directive 79/831 Annex V.A8 by means of HPLC (High Performance Liquid Chromatography) on a reversed-phase column (C 18). Temperature: 43° C.
The determination is carried out in the acidic range at pH 2.7, using 0.1% strength aqueous formic acid and acetonitrile (contains 0.1% formic acid) as eluents; linear gradient from 10% acetonitrile to 95% acetonitrile.
Calibration is carried out using unbranched alkan-2-ones (with 3 to 16 carbon atoms) with known logP values (determination of the logP values with reference to the retention times by linear interpolation between two successive alkanones).

[2] = tested on: Pyrenophora teres; test: Pyrenophora teres test (barley)/protective; assay type: in vivo; settings: protective spray, 1000 ppm active substance, evaluation 8 days after inoculation
Protocol: Pyrenophora teres Test (Barley)/Protective
To prepare a suitable preparation of active substance, 1 part by weight of active substance is mixed with the stated amounts of solvent and emulsifier, and the concentrate is diluted with water to the desired concentration.
To test for protective activity, young plants are sprayed with the active substance preparation at the application rate detailed. After the spray coating has dried on, the plants are sprayed with a spore suspension of Pyrenophora teres. The plants remain in an incubation cabinet for 48 hours at 20° C. and 100% relative atmospheric humidity. The plants are placed in a greenhouse at a temperature of approximately 20° C. and a relative atmospheric humidity of approximately 80%.
Evaluation is carried out 8 days after the inoculation. 0% means an efficacy which corresponds to that of the control, while an efficacy of 100% means that no disease is observed.

SMILES	chromatographic logP [1]	also measured
CCn1c(=O)c2sc3c(=O)[nH]c(=O)c3sc2c1=O [Compound 39, 2-Ethyl-1H,5H-[1,4]dithiino[2,3-c:5,6-c′]dipyrrole-1,3,5,7(2H,6H)-tetrone]	2.13	–
CC(=O)OC(C)Cn1c(=O)c2sc3c(=O)n(CC(C)OC(C)=O)c(=O)c3sc2c1=O (centres unmarked) [Compound 36, (1,3,5,7-Tetraoxo-1,3,5,7-tetrahydro-2H,6H-[1,4]dithiino[2,3-c:5,6-c′]dipyrrole-2,6-diyl)dipropane-1,2-diyl diacetate]	3.09	–
CC(C)(O)Cn1c(=O)c2sc3c(=O)n(CC(C)(C)O)c(=O)c3sc2c1=O [Compound 34, 2,6-Bis(2-hydroxy-2-methylpropyl)-1H,5H-[1,4]dithiino[2,3-c:5,6-c′]dipyrrole-1,3,5,7(2H,6H)-tetrone]	3.65	–
O=c1c2sc3c(=O)n(C4(C(F)(F)F)CC4)c(=O)c3sc2c(=O)n1C1(C(F)(F)F)CC1 [Compound 7, 2,6-Bis[1-(trifluoromethyl)cyclopropyl]-1H,5H-[1,4]dithiino[2,3-c:5,6-c′]dipyrrole-1,3,5,7(2H,6H)-tetrone]	4.03	–
Cn1c(=O)c2sc3c(=O)n(C)c(=O)c3sc2c1=O [Compound 1, 2,6-Dimethyl-1H,5H-[1,4]dithiino[2,3-c:5,6-c′]dipyrrole-1,3,5,7(2H,6H)-tetrone]	2.32	efficacy [2]: ≥ 70%
O=C(O)CCCCn1c(=O)c2sc3c(=O)n(CCCCC(=O)O)c(=O)c3sc2c1=O [Compound 29, 5,5′-(1,3,5,7-Tetraoxo-1,3,5,7-tetrahydro-2H,6H-[1,4]dithiino[2,3-c:5,6-c′]dipyrrole-2,6-diyl)dipentanoic acid]	2.02	–
O=c1c2sc3c(=O)n(CC(F)(F)F)c(=O)c3sc2c(=O)n1CC(F)(F)F [Compound 6, 2,6-Bis(2,2,2-trifluoroethyl)-1H,5H-[1,4]dithiino[2,3-c:5,6-c′]dipyrrole-1,3,5,7(2H,6H)-tetrone]	3.41	–
CCC(O)Cn1c(=O)c2sc3c(=O)n(CC(O)CC)c(=O)c3sc2c1=O (centres unmarked) [Compound 13, 2,6-Bis(2-hydroxybutyl)-1H,5H-[1,4]dithiino[2,3-c:5,6-c′]dipyrrole-1,3,5,7(2H,6H)-tetrone]	2.27	–
O=c1[nH]c(=O)c2sc3c(=O)[nH]c(=O)c3sc12 [Compound 8, 1H,5H-[1,4]Dithiino[2,3-c:5,6-c′]dipyrrole-1,3,5,7(2H,6H)-tetrone]	1.13	–
CC(O)Cn1c(=O)c2sc3c(=O)n(CC(C)O)c(=O)c3sc2c1=O (centres unmarked) [Compound 14, 2,6-Bis(2-hydroxypropyl)-1H,5H-[1,4]dithiino[2,3-c:5,6-c′]dipyrrole-1,3,5,7(2H,6H)-tetrone]	1.63	–
COCCn1c(=O)c2sc3c(=O)n(CCOC)c(=O)c3sc2c1=O [Compound 12, 2,6-Bis(2-methoxyethyl)-1H,5H-[1,4]dithiino[2,3-c:5,6-c′]dipyrrole-1,3,5,7(2H,6H)-tetrone]	2.55	–
CCOCCn1c(=O)c2sc3c(=O)n(CCOCC)c(=O)c3sc2c1=O [Compound 16, 2,6-Bis(2-ethoxyethyl)-1H,5H-[1,4]dithiino[2,3-c:5,6-c′]dipyrrole-1,3,5,7(2H,6H)-tetrone]	3.24	–
CCC(Cn1c(=O)c2sc3c(=O)n(CC(CC)OC(C)=O)c(=O)c3sc2c1=O)OC(C)=O (centres unmarked) [Compound 35, (1,3,5,7-Tetraoxo-1,3,5,7-tetrahydro-2H,6H-[1,4]dithiino[2,3-c:5,6-c′]dipyrrole-2,6-diyl)dibutane-1,2-diyl diacetate]	3.09	–
CCCCC(C(=O)OCC)n1c(=O)c2sc3c(=O)n(C(CCCC)C(=O)OCC)c(=O)c3sc2c1=O (centres unmarked) [Compound 40, Diethyl 2,2′-(1,3,5,7-tetraoxo-1,3,5,7-tetrahydro-2H,6H-[1,4]dithiino[2,3-c:5,6-e]dipyrrole-2,6-diyl)di-hexanoate]	–	log P [1]: log P = 4.66

The next lines start with results.

chromatographic logP [1]	SMILES	also measured
3.12	O=C(O)C(Cc1ccccc1)n1c(=O)c2sc3c(=O)n(C(Cc4ccccc4)C(=O)O)c(=O)c3sc2c1=O (centres unmarked) [Compound 32, 2,2′-(1,3,5,7-Tetraoxo-1,3,5,7-tetrahydro-2H,6H-[1,4]dithiino[2,3-c:5,6-c′]dipyrrole-2,6-diyl)bis(3-phenyl-propanoic acid)]	–
4.6	O=c1c2sc3c(=O)n(Cc4ccccc4)c(=O)c3sc2c(=O)n1Cc1ccccc1 [Compound 11, 2,6-Dibenzyl-1H,5H-[1,4]dithiino[2,3-c:5,6-c′]dipyrrole-1,3,5,7(2H,6H)-tetrone]	–
3.86	O=c1c2sc3c(=O)n(CCOc4ccccc4)c(=O)c3sc2c(=O)n1CCOc1ccccc1 [Compound 15, 2,6-Bis(2-phenoxyethyl)-1H,5H-[1,4]dithiino[2,3-c:5,6-c′]dipyrrole-1,3,5,7(2H,6H)-tetrone]	–
4.91	O=c1c2sc3c(=O)n(-c4cccc(C(F)(F)F)c4)c(=O)c3sc2c(=O)n1-c1cccc(C(F)(F)F)c1 [Compound 31, 2,6-Bis[3-(trifluoromethyl)phenyl]-1H,5H-[1,4]dithiino[2,3-c:5,6-c′]dipyrrole-1,3,5,7(2H,6H)-tetrone]	–
1.73	CCOC(=O)C(CC)n1c(=O)c2sc3c(=O)n(C(CC)C(=O)O)c(=O)c3sc2c1=O (centres unmarked) [Compound 41, 2-[2-(1-Ethoxy-1-oxobutan-2-yl)-1,3,5,7-tetraoxo-2,3,5,7-tetrahydro-1H,6H-[1,4]dithiino[2,3-c:5,6-c′]-dipyrrole-6-yl]butanoic acid]	–
1.76	CC(C(=O)O)n1c(=O)c2sc3c(=O)n(C(C)C(=O)O)c(=O)c3sc2c1=O (centres unmarked) [Compound 24, 2,2′-(1,3,5,7-Tetraoxo-1,3,5,7-tetrahydro-2H,6H-[1,4]dithiino[2,3-c:5,6-c′]dipyrrole-2,6-diyl)dipropanoic acid]	–
4.19	CC(C)n1c(=O)c2sc3c(=O)n(C(C)C)c(=O)c3sc2c1=O [Compound 4, 2,6-Di(propan-2-yl)-1H,5H-[1,4]dithiino[2,3-c:5,6-c′]dipyrrole-1,3,5,7(2H,6H)-tetrone]	–
1.99	CC(CC(=O)O)n1c(=O)c2sc3c(=O)n(C(C)CC(=O)O)c(=O)c3sc2c1=O (centres unmarked) [Compound 28, 3,3′-(1,3,5,7-Tetraoxo-1,3,5,7-tetrahydro-2H,6H-[1,4]dithiino[2,3-c:5,6-c′]dipyrrole-2,6-diyl)dibutanoic acid]	–
